Experimental data taken from article PMC9420858, “Synthesis, bioactivity, and molecular docking of novel arylpiperazine derivatives as potential AR antagonists” (Frontiers in Chemistry, 2022).
Where two headings read alike, the source gives them in different places.

Experiments:
LNCaP cells [1] = details: printed without SD, ref Banday et al., 2014, read-out: LNCaP IC50 (control compound finasteride); cited from earlier work
PC-3 cells [2] = details: printed without SD, ref Banday et al., 2014, read-out: PC-3 IC50 (control compound finasteride); cited from earlier work
PC-3 cells [3] = experiment: Antiproliferative activity, CCK-8 assay, PC-3 cells; type: cell-based; details: PC-3 human prostate cancer cell line, 24 h, mean ± SD of three experiments
Method: (§1) The antiproliferative activity of compounds 5–26 was assessed using the CCK-8 assay ([Chen et al., 2016]; [Chen et al., 2017]; [Chen et al., 2018]; [Han et al., 2020]; [Guo et al., 2021]; [Hu et al., 2022]; [Zhou et al., 2022]). The 96-well plates (1×10^5 cells/mL) were seeded with cells in a medium, the plates were cultured at 37 °C for 24 h, then different concentrations of tested drugs were added, and the plates were cultured for 24 h. After 24 h, 10 μL of CCK-8 solution (5 mg/ml) was added to the wells, and the cells were cultured for 1 h at 37°C. Cell growth inhibition was performed by measuring the absorbance at 450 nm using a microplate reader, and the percentage of cell growth inhibition was then calculated for each tested drug.
(§2) Antiproliferative activity of the novel arylpiperazine derivatives was firstly evaluated against LNCaP cells using the CCK-8 assay. […] Naftopidil and finasteride ([Banday et al., 2014]) were used as control compounds. RWPE-1 cells were used to compare their toxicity. To clarify whether the antiproliferative activity was related to any interference with AR function, the AR antagonist effect was evaluated using the luciferase reporter gene assay. […] The AR luciferase assays were conducted under the co-treatment of 1 nM AR agonist R1881, and the antagonistic activity was measured by inhibiting the R1881-induced luciferase expression.

RWPE-1 cells = experiment: Cytotoxicity, CCK-8 assay, RWPE-1 normal prostate epithelial cells; type: cell-based; details: RWPE-1 normal non-cancer human prostate epithelial cell line, 24 h, mean ± SD of three experiments
Method: as §1, §2

AR-LBD (GST) = target: T1, AR-LBD (GST) (Rattus norvegicus, UniProt P15207); experiment: AR binding, fluorescence polarization (PolarScreen AR Competitor Assay)
T1 sequence (P15207 651-882 limits assumed): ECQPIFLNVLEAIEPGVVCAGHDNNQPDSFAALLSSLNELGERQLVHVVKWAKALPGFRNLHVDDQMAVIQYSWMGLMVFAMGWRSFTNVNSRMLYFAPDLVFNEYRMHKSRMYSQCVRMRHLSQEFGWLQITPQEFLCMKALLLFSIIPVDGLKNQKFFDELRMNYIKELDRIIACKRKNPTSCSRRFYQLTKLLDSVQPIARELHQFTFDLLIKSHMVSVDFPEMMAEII
Method: Briefly, titrations are performed between the tested compounds and the preformed Fluormone™AL Green and the AR-LBD (GST) complex. The tested mixture was allowed to equilibrate at room temperature in 384-well plates for 4 h. […] Data of the ligand binding assays were analyzed using Prism software (GraphPad Software, Inc.).

LNCaP cells [4] = experiment: Antiproliferative activity, CCK-8 assay, LNCaP cells; type: cell-based; details: 24 h, LNCaP human prostate cancer cell line, mean ± SD of three experiments
Method: as §1, §2

[5] = AR binding affinity IC50, fluorescence polarization

IC50 (PC-3 cells [3]) | melting point | IC50 (AR-LBD (GST)) | IC50 (AR-LBD (GST); [5]) | IC50 (LNCaP cells [4]; Homo sapiens, LNCaP) | IC50 (LNCaP cells [4]) | Compound | IC50 (LNCaP cells [1]) | IC50 (PC-3 cells [2]) | IC50 (RWPE-1 cells)
 |  |  |  |  |  | CC(C)(C)NC(=O)[C@H]1CC[C@H]2[C@@H]3CC[C@H]4NC(=O)C=C[C@]4(C)[C@H]3CC[C@]12C [Finasteride] | 13.5 µM | 17.8 µM | 
25.62 ± 0.17 µM | 77.3 to 78.5 °C | 2.53 ± 0.15 µM | < 3 µM | < 10 µM | 8.12 ± 0.11 µM | COc1ccccc1N1CCN(CCc2ccc(COc3ccc4c(c3)CCC4)cc2)CC1 [Compound 12, 1-(4-((2,3-dihydro-1H-inden-5-yloxy)methyl)phenethyl)-4-(2-methoxyphenyl)piperazine] |  |  | > 50 µM
> 50 µM | 62.3 to 63.1 °C | 2.35 ± 0.09 µM | < 3 µM | < 10 µM | 7.37 ± 0.15 µM | Cc1ccccc1N1CCN(CCc2ccc(COc3ccc4c(c3)CCC4)cc2)CC1 [Compound 8, 1-(4-((2,3-dihydro-1H-inden-5-yloxy)methyl)phenethyl)-4-o-tolylpiperazine] |  |  | > 50 µM
